Data reported in publication PMC6120666 (The EMBO Journal, 2018).

Tests used:
Assay in all cases: Drug affinity chromatography with c-ponatinib and LC-MS/MS (ponatinib interactome)
Assay type in all cases: binding
[1] = target: T1, proteins of U2OS cell lysate (Homo sapiens, UniProt P26640); conditions: VARS, Valine--tRNA ligase
T1 construct: Proteins enriched by c-ponatinib from U2OS cell lysate; endogenous in cells; host or cells: U2OS cell lysate
Method in brief: (§1)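 U2OS cell lysate in NP-40 lysis buffer (2 mg protein per pulldown) was incubated with amine-derivatized NHS beads for 2 h at 4 °C. Bound proteins were washed, eluted with 100 mM formic acid, reduced, alkylated and trypsin-digested, then identified by nano-UPLC–MS/MS on Orbitrap instruments with a 60 min gradient.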

[2] = target: T2, proteins of U2OS cell lysate (Homo sapiens, UniProt P49368); conditions: CCT3, T-complex protein 1 subunit gamma
T2 construct: Proteins enriched by c-ponatinib from U2OS cell lysate; endogenous in cells; host or cells: U2OS cell lysate
Method in brief: as §1

[3] = target: T3, proteins of U2OS cell lysate (Homo sapiens, UniProt Q96RR4); conditions: CAMKK2, Calcium/calmodulin-dependent protein kinase kinase 2
T3 construct: Proteins enriched by c-ponatinib from U2OS cell lysate; endogenous in cells; host or cells: U2OS cell lysate
Method in brief: as §1

[4] = target: T4, proteins of U2OS cell lysate (Homo sapiens, UniProt O75521); conditions: ECI2, Enoyl-CoA delta isomerase 2, mitochondrial
T4 construct: Proteins enriched by c-ponatinib from U2OS cell lysate; endogenous in cells; host or cells: U2OS cell lysate
Method in brief: as §1

[5] = target: T5, proteins of U2OS cell lysate (Homo sapiens, UniProt O95292); conditions: VAPB, Vesicle-associated membrane protein-associated protein B/C
T5 construct: Proteins enriched by c-ponatinib from U2OS cell lysate; endogenous in cells; host or cells: U2OS cell lysate
Method in brief: as §1

[6] = target: T6, proteins of U2OS cell lysate (Homo sapiens, UniProt Q07065); conditions: CKAP4, Cytoskeleton-associated protein 4
T6 construct: Proteins enriched by c-ponatinib from U2OS cell lysate; endogenous in cells; host or cells: U2OS cell lysate
Method in brief: as §1

[7] = target: T7, proteins of U2OS cell lysate (Homo sapiens, UniProt P11142); conditions: HSPA8, Heat shock cognate 71 kDa protein
T7 construct: Proteins enriched by c-ponatinib from U2OS cell lysate; endogenous in cells; host or cells: U2OS cell lysate
Method in brief: as §1

[8] = target: T8, proteins of U2OS cell lysate (Homo sapiens, UniProt P51665); conditions: PSMD7, 26S proteasome non-ATPase regulatory subunit 7
T8 construct: Proteins enriched by c-ponatinib from U2OS cell lysate; endogenous in cells; host or cells: U2OS cell lysate
Method in brief: as §1

[9] = target: T9, proteins of U2OS cell lysate (Homo sapiens, UniProt Q9NWB6); conditions: ARGLU1, Arginine and glutamate-rich protein 1
T9 construct: Proteins enriched by c-ponatinib from U2OS cell lysate; endogenous in cells; host or cells: U2OS cell lysate
Method in brief: as §1

[10] = target: T10, proteins of U2OS cell lysate (Homo sapiens, UniProt Q9Y224); conditions: C14orf166, UPF0568 protein C14orf166
T10 construct: Proteins enriched by c-ponatinib from U2OS cell lysate; endogenous in cells; host or cells: U2OS cell lysate
Method in brief: as §1

[11] = target: T11, proteins of U2OS cell lysate (Homo sapiens, UniProt P14314); conditions: PRKCSH, Glucosidase 2 subunit beta
T11 construct: Proteins enriched by c-ponatinib from U2OS cell lysate; endogenous in cells; host or cells: U2OS cell lysate
Method in brief: as §1

[12] = target: T12, proteins of U2OS cell lysate (Homo sapiens, UniProt P11441); conditions: UBL4A, Ubiquitin-like protein 4A
T12 construct: Proteins enriched by c-ponatinib from U2OS cell lysate; endogenous in cells; host or cells: U2OS cell lysate
Method in brief: as §1

[13] = target: T13, proteins of U2OS cell lysate (Homo sapiens, UniProt P62851); conditions: RPS25, 40S ribosomal protein S25
T13 construct: Proteins enriched by c-ponatinib from U2OS cell lysate; endogenous in cells; host or cells: U2OS cell lysate
Method in brief: as §1

[14] = target: T14, proteins of U2OS cell lysate (Homo sapiens, UniProt P48047); conditions: ATP5O, ATP synthase subunit O, mitochondrial
T14 construct: Proteins enriched by c-ponatinib from U2OS cell lysate; endogenous in cells; host or cells: U2OS cell lysate
Method in brief: as §1

[15] = target: T15, proteins of U2OS cell lysate (Homo sapiens, UniProt P05141); conditions: SLC25A5;SLC25A6;SLC25A4, ADP/ATP translocase 2
T15 construct: Proteins enriched by c-ponatinib from U2OS cell lysate; endogenous in cells; host or cells: U2OS cell lysate
Method in brief: as §1

[16] = target: T16, proteins of U2OS cell lysate (Homo sapiens, UniProt P00387); conditions: CYB5R3, NADH-cytochrome b5 reductase 3
T16 construct: Proteins enriched by c-ponatinib from U2OS cell lysate; endogenous in cells; host or cells: U2OS cell lysate
Method in brief: as §1

[17] = target: T17, proteins of U2OS cell lysate (Homo sapiens, UniProt P42684); conditions: ABL2, Abelson tyrosine-protein kinase 2
T17 construct: Proteins enriched by c-ponatinib from U2OS cell lysate; endogenous in cells; host or cells: U2OS cell lysate
Method in brief: as §1

[18] = target: T18, proteins of U2OS cell lysate (Homo sapiens, UniProt P20674); conditions: captured protein COX5A, Rank 122
T18 construct: Proteins enriched by c-ponatinib from U2OS cell lysate; endogenous in cells; host or cells: U2OS cell lysate
Method in brief: as §1

[19] = target: T19, proteins of U2OS cell lysate (Homo sapiens, UniProt Q9UNM6); conditions: captured protein PSMD13, Rank 204
T19 construct: Proteins enriched by c-ponatinib from U2OS cell lysate; endogenous in cells; host or cells: U2OS cell lysate
Method in brief: as §1

T7 sequence (P11142 whole entry): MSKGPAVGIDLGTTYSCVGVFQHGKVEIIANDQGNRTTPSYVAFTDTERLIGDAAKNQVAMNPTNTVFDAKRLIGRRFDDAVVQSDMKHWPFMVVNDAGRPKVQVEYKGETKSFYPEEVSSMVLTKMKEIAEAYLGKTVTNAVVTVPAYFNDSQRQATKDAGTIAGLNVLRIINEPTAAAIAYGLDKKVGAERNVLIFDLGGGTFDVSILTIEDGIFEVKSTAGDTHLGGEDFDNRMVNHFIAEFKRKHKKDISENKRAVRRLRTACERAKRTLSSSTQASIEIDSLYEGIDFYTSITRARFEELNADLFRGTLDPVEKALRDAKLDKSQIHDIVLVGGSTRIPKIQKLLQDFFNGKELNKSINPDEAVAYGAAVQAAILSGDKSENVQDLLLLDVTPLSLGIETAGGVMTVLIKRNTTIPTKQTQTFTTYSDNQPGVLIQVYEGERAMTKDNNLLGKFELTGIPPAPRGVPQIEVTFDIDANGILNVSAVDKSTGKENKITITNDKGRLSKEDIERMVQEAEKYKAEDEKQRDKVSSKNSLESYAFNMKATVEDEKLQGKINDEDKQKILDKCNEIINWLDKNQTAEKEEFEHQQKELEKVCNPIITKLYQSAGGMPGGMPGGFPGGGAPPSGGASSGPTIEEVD
T17 sequence (P42684 whole entry): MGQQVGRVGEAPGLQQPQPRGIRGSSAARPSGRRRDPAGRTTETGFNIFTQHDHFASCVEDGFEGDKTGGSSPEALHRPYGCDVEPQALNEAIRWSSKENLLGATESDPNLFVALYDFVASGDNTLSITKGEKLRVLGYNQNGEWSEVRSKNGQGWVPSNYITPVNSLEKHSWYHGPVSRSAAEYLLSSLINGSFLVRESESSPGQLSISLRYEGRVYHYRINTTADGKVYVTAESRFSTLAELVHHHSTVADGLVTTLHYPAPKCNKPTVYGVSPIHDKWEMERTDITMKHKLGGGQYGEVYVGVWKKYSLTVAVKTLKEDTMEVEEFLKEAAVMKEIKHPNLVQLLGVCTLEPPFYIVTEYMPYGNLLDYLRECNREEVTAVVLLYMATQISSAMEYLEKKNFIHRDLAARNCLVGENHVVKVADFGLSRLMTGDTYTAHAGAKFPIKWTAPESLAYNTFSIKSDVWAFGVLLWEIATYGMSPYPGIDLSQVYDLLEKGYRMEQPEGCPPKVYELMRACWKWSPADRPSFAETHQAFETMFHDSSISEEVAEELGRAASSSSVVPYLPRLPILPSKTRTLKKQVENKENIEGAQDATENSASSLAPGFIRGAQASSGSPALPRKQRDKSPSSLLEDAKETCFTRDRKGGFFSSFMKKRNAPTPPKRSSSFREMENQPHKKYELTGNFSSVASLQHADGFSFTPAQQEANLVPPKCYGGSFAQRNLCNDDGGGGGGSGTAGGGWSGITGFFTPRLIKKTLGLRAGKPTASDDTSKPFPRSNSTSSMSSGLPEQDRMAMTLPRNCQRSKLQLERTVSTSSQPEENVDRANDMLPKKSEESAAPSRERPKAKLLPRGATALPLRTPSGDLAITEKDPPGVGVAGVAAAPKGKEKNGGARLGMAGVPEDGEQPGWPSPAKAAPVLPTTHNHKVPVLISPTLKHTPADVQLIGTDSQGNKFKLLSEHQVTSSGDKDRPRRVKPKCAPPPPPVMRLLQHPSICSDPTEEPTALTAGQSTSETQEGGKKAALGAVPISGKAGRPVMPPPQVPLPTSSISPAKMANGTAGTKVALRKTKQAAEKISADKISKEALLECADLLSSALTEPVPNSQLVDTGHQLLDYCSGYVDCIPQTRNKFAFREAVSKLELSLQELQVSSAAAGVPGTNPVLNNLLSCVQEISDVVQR
T14 sequence (P48047 24-213): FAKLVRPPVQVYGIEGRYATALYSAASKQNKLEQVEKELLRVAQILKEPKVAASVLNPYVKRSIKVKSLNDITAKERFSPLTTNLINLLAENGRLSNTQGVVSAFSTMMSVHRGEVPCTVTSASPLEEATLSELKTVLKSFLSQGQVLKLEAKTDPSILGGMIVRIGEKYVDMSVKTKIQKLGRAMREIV
T19 sequence (Q9UNM6 whole entry): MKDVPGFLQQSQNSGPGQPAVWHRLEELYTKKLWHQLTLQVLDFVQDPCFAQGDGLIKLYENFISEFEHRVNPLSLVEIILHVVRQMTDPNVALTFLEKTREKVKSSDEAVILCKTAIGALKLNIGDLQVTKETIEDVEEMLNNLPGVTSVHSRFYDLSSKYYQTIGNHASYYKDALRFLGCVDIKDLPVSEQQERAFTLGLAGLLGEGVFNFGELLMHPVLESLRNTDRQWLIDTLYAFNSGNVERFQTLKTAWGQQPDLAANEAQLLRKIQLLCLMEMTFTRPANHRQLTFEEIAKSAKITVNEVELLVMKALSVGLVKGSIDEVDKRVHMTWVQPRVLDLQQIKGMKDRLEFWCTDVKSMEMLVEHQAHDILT
T4 sequence (O75521 39-394): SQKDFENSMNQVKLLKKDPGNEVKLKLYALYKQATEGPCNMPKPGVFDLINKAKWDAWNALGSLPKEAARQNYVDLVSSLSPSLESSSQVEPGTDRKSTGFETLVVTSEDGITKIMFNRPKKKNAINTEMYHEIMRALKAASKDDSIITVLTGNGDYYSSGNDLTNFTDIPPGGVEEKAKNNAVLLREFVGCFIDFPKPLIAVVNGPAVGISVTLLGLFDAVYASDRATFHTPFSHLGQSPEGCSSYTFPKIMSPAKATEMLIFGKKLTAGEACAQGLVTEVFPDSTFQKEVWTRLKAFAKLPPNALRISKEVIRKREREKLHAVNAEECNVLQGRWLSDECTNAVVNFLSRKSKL
T8 sequence (P51665 whole entry): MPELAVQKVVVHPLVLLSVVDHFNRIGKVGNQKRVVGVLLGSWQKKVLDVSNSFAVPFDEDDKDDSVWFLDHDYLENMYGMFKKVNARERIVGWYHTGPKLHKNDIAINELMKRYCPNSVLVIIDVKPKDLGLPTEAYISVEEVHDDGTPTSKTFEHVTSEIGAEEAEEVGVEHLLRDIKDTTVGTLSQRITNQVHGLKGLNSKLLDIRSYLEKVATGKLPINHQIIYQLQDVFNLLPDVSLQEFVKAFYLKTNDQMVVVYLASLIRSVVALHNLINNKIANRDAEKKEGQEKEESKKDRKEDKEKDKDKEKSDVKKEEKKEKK
T10 sequence (Q9Y224 whole entry): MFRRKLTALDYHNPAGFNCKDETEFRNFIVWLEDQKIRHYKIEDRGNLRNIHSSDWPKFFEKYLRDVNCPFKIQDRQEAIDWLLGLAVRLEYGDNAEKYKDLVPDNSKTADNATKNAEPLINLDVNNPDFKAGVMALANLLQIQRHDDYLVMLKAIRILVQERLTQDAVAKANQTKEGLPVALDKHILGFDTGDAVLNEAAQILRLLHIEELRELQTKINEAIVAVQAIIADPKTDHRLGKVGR
T16 sequence (P00387 whole entry): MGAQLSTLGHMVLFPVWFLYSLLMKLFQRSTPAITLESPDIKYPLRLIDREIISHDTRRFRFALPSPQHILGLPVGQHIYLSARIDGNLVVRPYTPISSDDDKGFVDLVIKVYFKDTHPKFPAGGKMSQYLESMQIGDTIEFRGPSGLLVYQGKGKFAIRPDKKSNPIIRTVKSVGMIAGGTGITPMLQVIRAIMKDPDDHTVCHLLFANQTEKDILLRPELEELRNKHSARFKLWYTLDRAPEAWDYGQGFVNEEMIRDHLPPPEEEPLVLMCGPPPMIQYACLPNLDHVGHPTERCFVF
T18 sequence (P20674 42-150): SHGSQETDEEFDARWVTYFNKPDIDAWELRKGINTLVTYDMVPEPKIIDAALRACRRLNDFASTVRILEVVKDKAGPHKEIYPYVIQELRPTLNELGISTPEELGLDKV
T2 sequence (P49368 whole entry): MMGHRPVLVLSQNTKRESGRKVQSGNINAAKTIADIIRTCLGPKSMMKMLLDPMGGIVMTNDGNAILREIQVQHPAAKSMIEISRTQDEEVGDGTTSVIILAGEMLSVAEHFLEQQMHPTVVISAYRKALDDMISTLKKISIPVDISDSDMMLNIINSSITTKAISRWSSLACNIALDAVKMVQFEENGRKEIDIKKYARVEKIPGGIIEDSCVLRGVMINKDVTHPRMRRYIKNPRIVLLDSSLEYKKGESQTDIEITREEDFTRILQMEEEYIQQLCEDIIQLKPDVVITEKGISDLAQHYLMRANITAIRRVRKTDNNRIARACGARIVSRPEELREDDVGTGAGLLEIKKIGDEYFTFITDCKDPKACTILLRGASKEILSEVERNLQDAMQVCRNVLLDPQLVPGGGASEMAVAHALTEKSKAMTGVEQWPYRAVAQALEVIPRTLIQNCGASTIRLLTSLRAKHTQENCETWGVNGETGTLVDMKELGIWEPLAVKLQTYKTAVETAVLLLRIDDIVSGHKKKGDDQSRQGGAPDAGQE
T3 sequence (Q96RR4 whole entry): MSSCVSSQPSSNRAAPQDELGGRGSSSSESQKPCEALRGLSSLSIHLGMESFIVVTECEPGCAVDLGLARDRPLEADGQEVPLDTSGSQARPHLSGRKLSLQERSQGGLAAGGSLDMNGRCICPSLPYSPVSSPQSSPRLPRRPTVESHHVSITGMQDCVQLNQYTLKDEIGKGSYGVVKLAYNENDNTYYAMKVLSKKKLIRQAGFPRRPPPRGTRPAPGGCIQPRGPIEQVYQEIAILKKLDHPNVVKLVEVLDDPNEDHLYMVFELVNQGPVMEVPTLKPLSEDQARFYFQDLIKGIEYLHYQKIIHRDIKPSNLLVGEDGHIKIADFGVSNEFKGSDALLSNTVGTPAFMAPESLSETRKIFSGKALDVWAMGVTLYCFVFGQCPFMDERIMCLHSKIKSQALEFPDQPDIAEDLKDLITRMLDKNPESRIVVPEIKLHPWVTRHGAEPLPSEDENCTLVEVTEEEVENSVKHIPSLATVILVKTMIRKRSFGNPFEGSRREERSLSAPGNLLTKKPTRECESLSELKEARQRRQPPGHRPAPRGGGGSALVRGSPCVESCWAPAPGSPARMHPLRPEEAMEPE

Row | Compound | Average LFQ PON_WT [1] | Average LFQ PON_WT [2] | Average LFQ PON_WT [3] | Average LFQ PON_WT [4] | Average LFQ PON_WT [5] | Average LFQ PON_WT [6] | Average LFQ PON_WT [7] | Average LFQ PON_WT [8] | Average LFQ PON_WT [9] | Average LFQ PON_WT [10] | Average LFQ PON_WT [11] | Average LFQ PON_WT [12] | Average LFQ PON_WT [13] | Average LFQ PON_WT [14] | Average LFQ PON_WT [15] | Average LFQ PON_WT [16] | Average LFQ PON_WT [17] | Average LFQ intensity [18] | Average LFQ intensity [19]
1 | Cc1ccc(C(=O)Nc2ccc(CN3CCN(C)CC3)c(C(F)(F)F)c2)cc1C#Cc1cnc2cccnn12 [PON] | 20.4235 | 23.8873 | 20.0519 | 24.0947 | 20.7048 | 21.3006 | 27.1657 | 21.0889 | 21.1214 | 20.4304 | 21.2991 | 20.3097 | 23.6854 | 24.0207 | 25.3771 | 20.8184 | 26.1742 |  | 
2 | Cc1ccc(C(=O)Nc2ccc(CN3CCN(CCCN)CC3)c(C(F)(F)F)c2)cc1C#Cc1cnc2cccnn12 [c-ponatinib, reference compound] |  |  |  |  |  |  |  |  |  |  |  |  |  |  |  |  |  | 23.049 | 21.7826
